In ChEMBL document CHEMBL1201862, “PubChem BioAssay data set” (2004):
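The compound was tested at five concentrations on cells cultured in 96-well plates, with a 48-hour exposure period. Here, GI50 denotes the concentration required for 50% inhibition of growth.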 Active and inactive are the calls of the source. Cut-off read from the data, not from the text of the source: active = GI50 up to about 1.1 µM and inactive = higher.

How the values were obtained:
Assay in all cases: inhibition of tumour cell growth, NCI panel, 48 h
786-0 = tested on: 786-0
A549 = tested on: A549
ACHN = tested on: ACHN
BT-549 = tested on: BT-549
CAKI-1 = tested on: CAKI-1
CCRF-CEM = tested on: CCRF-CEM
COLO 205 = tested on: COLO 205
DU-145 = tested on: DU-145
EKVX = tested on: EKVX
HCC 2998 = tested on: HCC 2998
HCT-116 = tested on: HCT-116
HCT-15 = tested on: HCT-15
HL-60 = tested on: HL-60
HOP-62 = tested on: HOP-62
HOP-92 = tested on: HOP-92
HT-29 = tested on: HT-29
Hs-578T = tested on: Hs-578T
IGROV-1 = tested on: IGROV-1
K562 = tested on: K562
KM12 = tested on: KM12
LOX IMVI = tested on: LOX IMVI
M14 = tested on: M14
MCF7 = tested on: MCF7
MDA-MB-231 = tested on: MDA-MB-231
MDA-MB-435 = tested on: MDA-MB-435
MDA-N = tested on: MDA-N
MOLT-4 = tested on: MOLT-4
Malme-3M = tested on: Malme-3M
NCI-H226 = tested on: NCI-H226
NCI-H460 = tested on: NCI-H460
NCI-H522 = tested on: NCI-H522
NCI/ADR-RES = tested on: NCI/ADR-RES
OVCAR-4 = tested on: OVCAR-4
OVCAR-5 = tested on: OVCAR-5
OVCAR-8 = tested on: OVCAR-8
PC-3 = tested on: PC-3
RPMI-8226 = tested on: RPMI-8226
RXF 393 = tested on: RXF 393
SF-268 = tested on: SF-268
SF-295 = tested on: SF-295
SF-539 = tested on: SF-539
SK-MEL-28 = tested on: SK-MEL-28
SK-MEL-2 = tested on: SK-MEL-2
SK-MEL-5 = tested on: SK-MEL-5
SK-OV-3 = tested on: SK-OV-3
SN12C = tested on: SN12C
SNB-19 = tested on: SNB-19
SNB-75 = tested on: SNB-75
SR = tested on: SR
SW-620 = tested on: SW-620
T47D = tested on: T47D
TK-10 = tested on: TK-10
U-251 = tested on: U-251
UACC-257 = tested on: UACC-257
UACC-62 = tested on: UACC-62
UO-31 = tested on: UO-31

## COc1ccc2oc(=N)c(C(N)=S)cc2c1
786-0
  GI50: 23.9 µM (inactive)
A549
  GI50: 32.1 µM (inactive)
ACHN
  GI50: 21.4 µM (inactive)
BT-549
  GI50: 18.5 µM (inactive)
CAKI-1
  GI50: 37.8 µM (inactive)
CCRF-CEM
  GI50: 20.5 µM (inactive)
COLO 205
  GI50: 29.8 µM (inactive)
DU-145
  GI50: 27.2 µM (inactive)
EKVX
  GI50: 29.6 µM (inactive)
HCC 2998
  GI50: 17.3 µM (inactive)
HCT-116
  GI50: 17.4 µM (inactive)
HCT-15
  GI50: 17.5 µM
HL-60
  GI50: 14.3 µM (inactive)
HOP-62
  GI50: 31.8 µM (inactive)
HOP-92
  GI50: 24 µM (inactive)
HT-29
  GI50: 32 µM (inactive)
Hs-578T
  GI50: 23.2 µM (inactive)
IGROV-1
  GI50: 29.6 µM (inactive)
K562
  GI50: 28.4 µM (inactive)
KM12
  GI50: 22.2 µM (inactive)
LOX IMVI
  GI50: 15.4 µM (inactive)
M14
  GI50: 32.4 µM (inactive)
MCF7
  GI50: 27.7 µM (inactive)
MDA-MB-231
  GI50: 18 µM (inactive)
MDA-MB-435
  GI50: 25.1 µM (inactive)
MDA-N
  GI50: 21.1 µM (inactive)
MOLT-4
  GI50: 20 µM (inactive)
Malme-3M
  GI50: 14.1 µM (inactive)
NCI-H226
  GI50: 19.9 µM (inactive)
NCI-H460
  GI50: 16.9 µM (inactive)
NCI-H522
  GI50: 17.5 µM (inactive)
NCI/ADR-RES
  GI50: 16.8 µM (inactive)
OVCAR-4
  GI50: 31.9 µM (inactive)
OVCAR-5
  GI50: 29.9 µM (inactive)
OVCAR-8
  GI50: 18.2 µM (inactive)
PC-3
  GI50: 27.5 µM (inactive)
RPMI-8226
  GI50: 21.3 µM (inactive)
RXF 393
  GI50: 17 µM (inactive)
SF-268
  GI50: 15.5 µM (inactive)
SF-295
  GI50: 37.1 µM (inactive)
SF-539
  GI50: 22.1 µM (inactive)
SK-MEL-28
  GI50: 30.4 µM (inactive)
SK-MEL-2
  GI50: 18.4 µM (inactive)
SK-MEL-5
  GI50: 13.6 µM (inactive)
SK-OV-3
  GI50: 33.2 µM (inactive)
SN12C
  GI50: 27.2 µM (inactive)
SNB-19
  GI50: 31.2 µM (inactive)
SNB-75
  GI50: 24.9 µM (inactive)
SR
  GI50: 20 µM (inactive)
SW-620
  GI50: 25.5 µM (inactive)
T47D
  GI50: 23.7 µM (inactive)
TK-10
  GI50: 26.1 µM (inactive)
U-251
  GI50: 29 µM (inactive)
UACC-257
  GI50: 26.9 µM (inactive)
UACC-62
  GI50: 16 µM (inactive)
UO-31
  GI50: 19.6 µM (inactive)
